Measured values reported in patent US10561612B2, “Powdered formulations of cromolyn sodium and ibuprofen” (AZTherapies, Inc., priority 2017, dated 2020).
Where two headings read alike, the source gives them in different places.

Assays:
Assay type in all cases: physicochemical
[1] = Moisture content by simultaneous thermal analyzer (STA); conditions: for % Moisture content / Enthalpy change: by STA
Experimental: (§1) Following micronization, Particle Size Distribution (PSD) analysis was performed by wet dispersion. […] FIGS. 8A and 8B illustrate the SEM imagery of micronized ibuprofen at a 10 μm scale for Batch 1 and Batch 2, respectively. FIGS. 9A and 9B illustrate the SEM imagery of micronized ibuprofen at a 2 μm scale for Batch 1 and Batch 2, respectively. FIGS. 10A and 10B illustrate the PXRD of micronized ibuprofen for Batch 1 and Batch 2, respectively. Table 7 contains the data for moisture content of micronized ibuprofen as determined by simultaneous thermal analyzer (STA), which tests both by DTA (Differential Temperature Analysis) and TG (Thermogravimetry). FIGS. 11A, 11B, and 11C illustrate the hygroscopicity as determined GVS for coarse ibuprofen (FIG. 11A), Batch 1 (FIG. 11B), and Batch 2 (FIG. 11C).

[2] = Particle size determination (PSD) of coarse ibuprofen; conditions: for D10 / D50 / D90: Effect of Dispersant
Description: (§2) Coarse ibuprofen was characterized using PSD, PXRD, and GVS. […]
The average particle size determinations are illustrated in FIG. 5. The parameters and results were as follows: concentration 0.0406% Vol; span 1.493; uniformity 0.459; specific surface area 0.239 m^2/g; surface weighted mean […] 25.136 μm; and vol. weighted mean D[4,3] 62.020 μm.

[3] = Gravimetric vapor sorption (GVS); conditions: for weight gain upon exposure to moisture (moisture adsorbed on the surface): adsorption-desorption isotherm
Experimental: (§3) Ibuprofen was characterized to determine the parameters necessary to administer a therapeutically effective amount using an inhalation delivery system. The methodology included particle size determination (PSD); powdered x-ray crystallization diffraction (PXRD); and gravimetric vapor sorption (GVS).
as §1

[4] = Powdered x-ray diffraction (PXRD)
Description: as §3, with “(GVS). The methods determined that coarse ibuprofen was crystalline and non-hygroscopic. The results are summarized in Example 3.” for “(GVS).”
as §2

[5] = Stability study under accelerated degradation conditions, related substances; conditions: 40° C. and 75% relative humidity
Experimental: A stability study was performed to determine the compatibility of the combined APIs under accelerated degradation conditions. Separate control samples of micronized cromolyn sodium (Sample A) and micronized ibuprofen (Sample B) were included in the study to be used as a comparator to the blend of Cromolyn/Ibuprofen (Sample C). The study was performed at 40° C. and 75% relative humidity. Measurements were taken at time 0, 1 month, 2 months, and 3 months.

[6] = Solubility and dispersibility seen in PSD by wet dispersion
Description: The micronization may be performed on coarse ibuprofen using an air-jet mill or similar apparatus, such as a grinder or a mill. Other methods to micronize the ibuprofen include milling, bashing, cutting, or crushing. For example, two batches were micronized with an air-jet mill using a feed gas pressure of about 45 psi and a grinding pressure of about 45 psi. One batch was micronized a second time under the same conditions. Optionally, the ibuprofen may be micronized more than once. After micronization, particle size distribution was performed on the micronized ibuprofen by wet dispersion.
as §1

[7] = average particle size determination, FIG. 5

In the case of `CC(C)Cc1ccc(C(C)C(=O)O)cc1` (stereo not shown) [Batch 2, ibuprofen], the “% Moisture content” value [1] is reported as 1.14% and the Enthalpy change [1] is reported as 94.4 J/g.

For `CC(C)Cc1ccc(C(C)C(=O)O)cc1` (stereo not shown) [coarse ibuprofen, ibuprofen], the D10 ([2]; T (Day) 0) was 22.586 μm, the D50 ([2]; T (Day) 0) was 57.693 μm and the D90 ([2]; T (Day) 0) was 108.743 μm. For the same molecule, the D10 ([2]; T (Day) 1) was 22.401 μm, the D50 ([2]; T (Day) 1) was 57.611 μm and the D90 ([2]; T (Day) 1) was 108.724 μm. For the same molecule, the span [2, 7] was 1.493, the specific surface area [2, 7] was 0.239 m^2/g and the “surface weighted mean D[2,3]” value [2, 7] was 25.136 μm. The uniformity [2, 7] was 0.459, the “vol. weighted mean D[4,3]” value [2, 7] was 62.020 μm and the hygroscopicity [3] was “non-hygroscopic”. The “weight gain upon exposure to moisture (moisture adsorbed on the surface)” value (shortened to “weight gain upon exposure to moisture”) [3] was under 0.2%, the “weight gain upon exposure to moisture” value ([3]; listed as Ibuprofen) was under 0.2% and the “weight gain upon exposure to moisture” value ([3]; listed as ibuprofen) was under 0.2%. For the same molecule, the hygroscopicity ([3]; listed as Coarse ibuprofen) was “non-hydroscopic”, the hygroscopicity ([3]; listed as ibuprofen) was “non-hydroscopic” and the “% Moisture content” value [1] was 0.20%. The Enthalpy change [1] was 131.0 J/g, the “Inference (crystalline or amorphous)” value ([1]; from the enthalpy change) was “Crystalline” and the crystallinity [4] was “crystalline”.

In the case of `CC(C)Cc1ccc(C(C)C(=O)O)cc1` (stereo not shown) [Batch 1, ibuprofen], the “% Moisture content” value [1] is reported as 1.19% and the Enthalpy change [1] is reported as 120.5 J/g.

In the case of `O=C(O)c1cc(=O)c2c(OCC(O)COc3cccc4oc(C(=O)O)cc(=O)c34)cccc2o1` [Sample A, cromolyn sodium], the “Individual Related Substances ≥ 0.5%, cromolyn sodium” value ([5]; 1 month) is reported as 0.11%, the “Total Impurities, cromolyn sodium” value ([5]; 1 month) is reported as 0.1% and the “Individual Related Substances ≥ 0.5%, cromolyn sodium” value ([5]; 2 months) is reported as 0.11%. For the same molecule, the “Total Impurities, cromolyn sodium” value ([5]; 2 months) was 0.1%, the “Individual Related Substances ≥ 0.5%, cromolyn sodium” value ([5]; 3 months) was 0.11% and the “Total Impurities, cromolyn sodium” value ([5]; 3 months) was 0.1%. For the same molecule, the “Individual Related Substances ≥ 0.5%, cromolyn sodium” value ([5]; Initial T = 0) was 0.11% and the “Total Impurities, cromolyn sodium” value ([5]; Initial T = 0) was 0.1%.

For `CC(C)Cc1ccc(C(C)C(=O)O)cc1` (stereo not shown) [micronized ibuprofen, ibuprofen], the “weight gain upon exposure to moisture” value ([3]; listed as Micronize ibuprofen) was about 3%, the “weight gain upon exposure to moisture” value ([3]; listed as Micronized ibuprofen) was about 3% and the “Individual Related Substances ≥ 0.5%, RRT 0.93, ibuprofen” value ([5]; 1 month) was 0.07%. For the same molecule, the “Individual Related Substances ≥ 0.5%, RRT 1.11, ibuprofen” value ([5]; 1 month) was 0.05%, the “Total Impurities, ibuprofen” value ([5]; 1 month) was 0.1% and the “Individual Related Substances ≥ 0.5%, RRT 0.93, ibuprofen” value ([5]; 2 months) was 0.07%. For the same molecule, the “Individual Related Substances ≥ 0.5%, RRT 1.11, ibuprofen” value ([5]; 2 months) was “<LOQ”, the “Total Impurities, ibuprofen” value ([5]; 2 months) was 0.1% and the “Individual Related Substances ≥ 0.5%, RRT 0.93, ibuprofen” value ([5]; 3 months) was 0.07%. The “Individual Related Substances ≥ 0.5%, RRT 1.11, ibuprofen” value ([5]; 3 months) was “<LOQ”, the “Total Impurities, ibuprofen” value ([5]; 3 months) was 0.1% and the “Individual Related Substances ≥ 0.5%, RRT 0.93, ibuprofen” value ([5]; Initial T = 0) was 0.07%. For the same molecule, the “Total Impurities, ibuprofen” value ([5]; Initial T = 0) was 0.1%, the dispersibility in water [6] was “not dispersible in water” and the “solubility in organic solvents” value [6] was “highly soluble in organic solvents”. The “solubility in surfactant containing aqueous media” value [6] was “soluble in different surfactants containing aqueous media even at low concentrations of the surfactant”.
